Reference: the NIST ThermoML archive (doi:10.1021/je101232g)
Numbers after ± are expanded uncertainties.

Conditions: Liquid

Which mass density (283.15 K, 100 kPa) does the source give for `CCCCCCCCCCCCCC[P+](CCCCCC)(CCCCCC)CCCCCC.N#C[N-]C#N` [tetradecyl(trihexyl)phosphonium dicyanamide] here?
The mass density was 907.5 ± 0.7 kg/m3.

What about the mass density (283.15 K, 1000 kPa) of the same compound?
The mass density was 908 ± 0.8 kg/m3.

What about the mass density (283.15 K, 2000 kPa) of the same compound?
Its mass density is 908.4 ± 0.8 kg/m3.

And the mass density (283.15 K, 3000 kPa)?
The mass density was 908.9 ± 0.8 kg/m3.

What about the mass density (283.15 K, 4000 kPa) of the same compound?
The mass density was 909.3 ± 0.8 kg/m3.

And the mass density (283.15 K, 5000 kPa)?
Its mass density is 909.8 ± 0.9 kg/m3.

And the mass density (283.15 K, 10000 kPa)?
Its mass density is 912.1 ± 1 kg/m3.

And the mass density (283.15 K, 15000 kPa)?
Its mass density is 914.3 ± 1.1 kg/m3.

What about the mass density (283.15 K, 20000 kPa) of the same compound?
The mass density was 916.2 ± 1.2 kg/m3.

What about the mass density (283.15 K, 25000 kPa) of the same compound?
The mass density was 918.3 ± 1.3 kg/m3.

What about the mass density (283.15 K, 30000 kPa) of the same compound?
The mass density was 920.3 ± 1.4 kg/m3.

What about the mass density (283.15 K, 35000 kPa) of the same compound?
The mass density was 922.2 ± 1.5 kg/m3.

What about the mass density (283.15 K, 40000 kPa) of the same compound?
Its mass density is 924.2 ± 1.6 kg/m3.

What about the mass density (283.15 K, 45000 kPa) of the same compound?
Its mass density is 926.1 ± 1.7 kg/m3.

And the mass density (293.15 K, 100 kPa)?
Its mass density is 901.7 ± 0.7 kg/m3.

What about the mass density (293.15 K, 1000 kPa) of the same compound?
The mass density was 902.1 ± 0.8 kg/m3.

What about the mass density (293.15 K, 2000 kPa) of the same compound?
The mass density was 902.6 ± 0.8 kg/m3.

And the mass density (293.15 K, 3000 kPa)?
The mass density was 903.1 ± 0.8 kg/m3.

And the mass density (293.15 K, 4000 kPa)?
The mass density was 903.5 ± 0.9 kg/m3.

And the mass density (293.15 K, 5000 kPa)?
Its mass density is 904 ± 0.9 kg/m3.

And the mass density (293.15 K, 10000 kPa)?
Its mass density is 906.3 ± 1 kg/m3.

What about the mass density (293.15 K, 15000 kPa) of the same compound?
The mass density was 908.5 ± 1.1 kg/m3.

What about the mass density (293.15 K, 20000 kPa) of the same compound?
The mass density was 910.7 ± 1.3 kg/m3.

What about the mass density (293.15 K, 25000 kPa) of the same compound?
The mass density was 912.8 ± 1.4 kg/m3.

And the mass density (293.15 K, 30000 kPa)?
The mass density was 914.9 ± 1.5 kg/m3.

And the mass density (293.15 K, 35000 kPa)?
Its mass density is 916.9 ± 1.6 kg/m3.

And the mass density (293.15 K, 40000 kPa)?
Its mass density is 918.9 ± 1.7 kg/m3.

What about the mass density (293.15 K, 45000 kPa) of the same compound?
Its mass density is 920.9 ± 1.8 kg/m3.

What about the mass density (303.15 K, 100 kPa) of the same compound?
Its mass density is 895.9 ± 0.8 kg/m3.

What about the mass density (303.15 K, 1000 kPa) of the same compound?
The mass density was 896.4 ± 0.8 kg/m3.

What about the mass density (303.15 K, 2000 kPa) of the same compound?
The mass density was 896.9 ± 0.8 kg/m3.

And the mass density (303.15 K, 3000 kPa)?
The mass density was 897.4 ± 0.8 kg/m3.

And the mass density (303.15 K, 4000 kPa)?
Its mass density is 897.9 ± 0.9 kg/m3.

And the mass density (303.15 K, 5000 kPa)?
The mass density was 898.3 ± 0.9 kg/m3.

And the mass density (303.15 K, 10000 kPa)?
Its mass density is 900.7 ± 1 kg/m3.

What about the mass density (303.15 K, 15000 kPa) of the same compound?
Its mass density is 903 ± 1.2 kg/m3.

What about the mass density (303.15 K, 20000 kPa) of the same compound?
The mass density was 905.3 ± 1.3 kg/m3.

And the mass density (303.15 K, 25000 kPa)?
Its mass density is 907.5 ± 1.4 kg/m3.

What about the mass density (303.15 K, 30000 kPa) of the same compound?
Its mass density is 909.6 ± 1.5 kg/m3.

What about the mass density (303.15 K, 35000 kPa) of the same compound?
Its mass density is 911.6 ± 1.6 kg/m3.

And the mass density (303.15 K, 40000 kPa)?
The mass density was 913.7 ± 1.7 kg/m3.

And the mass density (303.15 K, 45000 kPa)?
The mass density was 915.7 ± 1.8 kg/m3.

What about the mass density (313.15 K, 100 kPa) of the same compound?
Its mass density is 890.2 ± 0.8 kg/m3.

And the mass density (313.15 K, 1000 kPa)?
Its mass density is 890.6 ± 0.8 kg/m3.

And the mass density (313.15 K, 2000 kPa)?
The mass density was 891.2 ± 0.8 kg/m3.

And the mass density (313.15 K, 3000 kPa)?
The mass density was 891.6 ± 0.9 kg/m3.

And the mass density (313.15 K, 4000 kPa)?
Its mass density is 892.1 ± 0.9 kg/m3.

What about the mass density (313.15 K, 5000 kPa) of the same compound?
The mass density was 892.7 ± 0.9 kg/m3.

And the mass density (313.15 K, 10000 kPa)?
Its mass density is 895.1 ± 1.1 kg/m3.

And the mass density (313.15 K, 15000 kPa)?
The mass density was 897.5 ± 1.2 kg/m3.

What about the mass density (313.15 K, 20000 kPa) of the same compound?
Its mass density is 899.9 ± 1.3 kg/m3.

What about the mass density (313.15 K, 25000 kPa) of the same compound?
The mass density was 902.1 ± 1.5 kg/m3.

What about the mass density (313.15 K, 30000 kPa) of the same compound?
The mass density was 904.3 ± 1.6 kg/m3.

What about the mass density (313.15 K, 35000 kPa) of the same compound?
Its mass density is 906.5 ± 1.7 kg/m3.

What about the mass density (313.15 K, 40000 kPa) of the same compound?
The mass density was 908.5 ± 1.8 kg/m3.

And the mass density (313.15 K, 45000 kPa)?
The mass density was 910.7 ± 1.9 kg/m3.

And the mass density (323.15 K, 100 kPa)?
Its mass density is 884.3 ± 0.8 kg/m3.

And the mass density (323.15 K, 1000 kPa)?
Its mass density is 884.8 ± 0.8 kg/m3.

What about the mass density (323.15 K, 2000 kPa) of the same compound?
Its mass density is 885.4 ± 0.9 kg/m3.

What about the mass density (323.15 K, 3000 kPa) of the same compound?
Its mass density is 885.9 ± 0.9 kg/m3.

What about the mass density (323.15 K, 4000 kPa) of the same compound?
The mass density was 886.5 ± 0.9 kg/m3.

And the mass density (323.15 K, 5000 kPa)?
Its mass density is 887 ± 1 kg/m3.

And the mass density (323.15 K, 10000 kPa)?
The mass density was 889.5 ± 1.1 kg/m3.

What about the mass density (323.15 K, 15000 kPa) of the same compound?
Its mass density is 892 ± 1.3 kg/m3.

And the mass density (323.15 K, 20000 kPa)?
The mass density was 894.4 ± 1.4 kg/m3.

And the mass density (323.15 K, 25000 kPa)?
The mass density was 896.7 ± 1.5 kg/m3.

What about the mass density (323.15 K, 30000 kPa) of the same compound?
The mass density was 899 ± 1.7 kg/m3.

And the mass density (323.15 K, 35000 kPa)?
The mass density was 901.4 ± 1.8 kg/m3.

What about the mass density (323.15 K, 40000 kPa) of the same compound?
The mass density was 903.4 ± 1.9 kg/m3.

And the mass density (323.15 K, 45000 kPa)?
The mass density was 905.6 ± 2 kg/m3.

And the mass density (333.15 K, 100 kPa)?
The mass density was 878.6 ± 0.8 kg/m3.

What about the mass density (333.15 K, 1000 kPa) of the same compound?
The mass density was 879.2 ± 0.8 kg/m3.

What about the mass density (333.15 K, 2000 kPa) of the same compound?
The mass density was 879.7 ± 0.9 kg/m3.

What about the mass density (333.15 K, 3000 kPa) of the same compound?
The mass density was 880.2 ± 0.9 kg/m3.

And the mass density (333.15 K, 4000 kPa)?
The mass density was 880.8 ± 0.9 kg/m3.

And the mass density (333.15 K, 5000 kPa)?
The mass density was 881.3 ± 1 kg/m3.

What about the mass density (333.15 K, 10000 kPa) of the same compound?
Its mass density is 884 ± 1.1 kg/m3.

What about the mass density (333.15 K, 15000 kPa) of the same compound?
Its mass density is 886.6 ± 1.3 kg/m3.

And the mass density (333.15 K, 20000 kPa)?
Its mass density is 889.1 ± 1.4 kg/m3.

And the mass density (333.15 K, 25000 kPa)?
The mass density was 891.4 ± 1.6 kg/m3.

What about the mass density (333.15 K, 30000 kPa) of the same compound?
Its mass density is 893.9 ± 1.7 kg/m3.

And the mass density (333.15 K, 35000 kPa)?
The mass density was 896.2 ± 1.8 kg/m3.

And the mass density (333.15 K, 40000 kPa)?
The mass density was 898.3 ± 2 kg/m3.

And the mass density (333.15 K, 45000 kPa)?
The mass density was 900.5 ± 2.1 kg/m3.
